Blank lines part the entries; values can stand above or below the compound they belong to.
Test system: 695427-040-R-J1-PDC complex spheroid viability
Test: Anticancer human tumor 695427-040-R-J1-PDC patient-derived colon adenocarcinoma cell line growth inhibition [RAS]
Conditions: for viability, T/C: stronger effect = lower value
Outline: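 Agents were tested in combination matrices in half-log decrements from a top concentration at or near clinical Cmax (10 microM if undetermined). Targets were multi-cell spheroids of tumour lines plus HUVEC and MSC stromal cells.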

[1] = curve of first compound, second compound 0.0316 µM
[2] = curve of first compound, second compound 0.1 µM
[3] = curve of first compound, second compound 0.316 µM
[4] = curve of first compound, second compound 1 µM
[5] = curve of first compound, second compound 3.16 µM
[6] = curve of first compound, second compound 10 µM
[7] = second compound 0.0316 µM, first compound 0.0316 µM
[8] = second compound 0.0316 µM, first compound 0.1 µM
[9] = second compound 0.0316 µM, first compound 0.316 µM
[10] = second compound 0.0316 µM, first compound 1 µM
[11] = second compound 0.1 µM, first compound 0.0316 µM
[12] = second compound 0.1 µM, first compound 0.1 µM
[13] = second compound 0.1 µM, first compound 0.316 µM
[14] = second compound 0.1 µM, first compound 1 µM
[15] = second compound 0.316 µM, first compound 0.0316 µM
[16] = second compound 0.316 µM, first compound 0.1 µM
[17] = second compound 0.316 µM, first compound 0.316 µM
[18] = second compound 0.316 µM, first compound 1 µM
[19] = second compound 1 µM, first compound 0.0316 µM
[20] = second compound 1 µM, first compound 0.1 µM
[21] = second compound 1 µM, first compound 0.316 µM
[22] = second compound 1 µM, first compound 1 µM
[23] = second compound 3.16 µM, first compound 0.0316 µM
[24] = second compound 3.16 µM, first compound 0.1 µM
[25] = second compound 3.16 µM, first compound 0.316 µM
[26] = second compound 3.16 µM, first compound 1 µM
[27] = second compound 10 µM, first compound 0.0316 µM
[28] = second compound 10 µM, first compound 0.1 µM
[29] = second compound 10 µM, first compound 0.316 µM
[30] = second compound 10 µM, first compound 1 µM
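Also: viability read after seven days of drug exposure.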
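For viability, T/C in this document: 100% = DMSO vehicle control viability.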

IC50 [1]: 1960 nM
IC50 [2]: 1890 nM
IC50 [3]: 1800 nM
IC50 [4]: 1600 nM
IC50 [5]: 1240 nM
IC50 [6]: < 31.6 nM
Structure (SMILES): CCC(CC)c1cc(NC2CCC(N)C2)n2nccc2n1 (stereo not given) + C#Cc1c(F)ccc2cc(O)cc(-c3ncc4c(N5CC6CCC(C5)N6)nc(OCC56CCCN5CC(F)C6)nc4c3F)c12
viability, T/C [7]: 102%
viability, T/C [8]: 109%
viability, T/C [9]: 110%
viability, T/C [10]: 110%
viability, T/C (second compound 0.0316 µM, first compound 3.16 µM): 5.99%
viability, T/C (second compound 0.0316 µM, first compound 10 µM): 12.4%
viability, T/C [11]: 95.5%
viability, T/C [12]: 90.5%
viability, T/C [13]: 108%
viability, T/C [14]: 101%
viability, T/C (second compound 0.1 µM, first compound 3.16 µM): 6.65%
viability, T/C (second compound 0.1 µM, first compound 10 µM): 13.9%
viability, T/C [15]: 99.3%
viability, T/C [16]: 90.8%
viability, T/C [17]: 97.2%
viability, T/C [18]: 91.3%
viability, T/C (second compound 0.316 µM, first compound 3.16 µM): 7.6%
viability, T/C (second compound 0.316 µM, first compound 10 µM): 13.9%
viability, T/C [19]: 76.9%
viability, T/C [20]: 70.5%
viability, T/C [21]: 76.8%
viability, T/C [22]: 82.1%
viability, T/C (second compound 1 µM, first compound 3.16 µM): 6.13%
viability, T/C (second compound 1 µM, first compound 10 µM): 17%
viability, T/C [23]: 66.9%
viability, T/C [24]: 59.6%
viability, T/C [25]: 64.9%
viability, T/C [26]: 59.2%
viability, T/C (second compound 3.16 µM, first compound 3.16 µM): 4.92%
viability, T/C (second compound 3.16 µM, first compound 10 µM): 15.3%
viability, T/C [27]: 40.6%
viability, T/C [28]: 43.7%
viability, T/C [29]: 43.6%
viability, T/C [30]: 38.2%
viability, T/C (second compound 10 µM, first compound 3.16 µM): 1.94%
viability, T/C (second compound 10 µM, first compound 10 µM): 7.42%

IC50 [1]: 40.4 nM
IC50 [2]: 31.5 nM
IC50 [3]: 31.4 nM
IC50 [4]: 17.7 nM
IC50 [5]: 3.68 nM
IC50 [6]: < 3.16 nM
Structure (SMILES): O=C(c1ccc(F)c(F)c1Nc1ccc(I)cc1F)N1CC(O)([C@@H]2CCCCN2)C1 + C#Cc1c(F)ccc2cc(O)cc(-c3ncc4c(N5CC6CCC(C5)N6)nc(OCC56CCCN5CC(F)C6)nc4c3F)c12
viability, T/C (second compound 0.0316 µM, first compound 0.00316 µM): 93.3%
viability, T/C (second compound 0.0316 µM, first compound 0.01 µM): 77%
viability, T/C [7]: 55.7%
viability, T/C [8]: 30.5%
viability, T/C [9]: 15.2%
viability, T/C [10]: 2.92%
viability, T/C (second compound 0.1 µM, first compound 0.00316 µM): 92.1%
viability, T/C (second compound 0.1 µM, first compound 0.01 µM): 65.7%
viability, T/C [11]: 53.8%
viability, T/C [12]: 30.9%
viability, T/C [13]: 15.7%
viability, T/C [14]: 2.78%
viability, T/C (second compound 0.316 µM, first compound 0.00316 µM): 82.9%
viability, T/C (second compound 0.316 µM, first compound 0.01 µM): 65.5%
viability, T/C [15]: 52.6%
viability, T/C [16]: 29.9%
viability, T/C [17]: 17%
viability, T/C [18]: 4.73%
viability, T/C (second compound 1 µM, first compound 0.00316 µM): 59.1%
viability, T/C (second compound 1 µM, first compound 0.01 µM): 53.4%
viability, T/C [19]: 47%
viability, T/C [20]: 23.4%
viability, T/C [21]: 12.8%
viability, T/C [22]: 3.39%
viability, T/C (second compound 3.16 µM, first compound 0.00316 µM): 52.2%
viability, T/C (second compound 3.16 µM, first compound 0.01 µM): 38.5%
viability, T/C [23]: 23.7%
viability, T/C [24]: 19.6%
viability, T/C [25]: 8.05%
viability, T/C [26]: 2.3%
viability, T/C (second compound 10 µM, first compound 0.00316 µM): 30.1%
viability, T/C (second compound 10 µM, first compound 0.01 µM): 32.8%
viability, T/C [27]: 22.5%
viability, T/C [28]: 11.1%
viability, T/C [29]: 2.72%
viability, T/C [30]: 1.31%

IC50 (curve of compound): 77.1 nM [middle of 4 runs]
Structure (SMILES): O=C(c1ccc(F)c(F)c1Nc1ccc(I)cc1F)N1CC(O)([C@@H]2CCCCN2)C1
viability, T/C (compound 0.00316 µM): 96.2% [middle of 4 runs]
viability, T/C (compound 0.0316 µM): 63.3% [middle of 4 runs]
viability, T/C (compound 0.1 µM): 50.1% [middle of 4 runs]
viability, T/C (compound 0.316 µM): 23.3% [middle of 4 runs]
viability, T/C (compound 1 µM): 6.95% [middle of 4 runs]

— PubChem BioAssay AID2060888 (Molecular Pharmacology Branch, DTP, NCI, 2025)
